Experimental data: patent US10640487B2, “Solid state forms of Nilotinib salts” (Teva Pharmaceuticals USA, Inc., priority 2016, dated 2020)

What was measured:
[1] = Thermodynamic stability (resistance to polymorphic conversion) compared with forms I and II of WO'222; format: physicochemical; details: compared to forms I and II of Nilotinib fumarate described in WO'222
Text: As used herein, and unless indicated otherwise, the term “thermo-dynamical stability” in relation to solid state forms of the present disclosure refers to resistance of the solid state form to polymorphic conversion under certain conditions, for example, heating, melting or dissolving. […] In some embodiments, the conversion is about 1% (w/w) to about 20% (w/w), about 1% (w/w) to about 10% (w/w) or about 1% (w/w) to about 5% (w/w).

[2] = Long term and accelerated storage stability of the solid state form; format: physicochemical

thermodynamic stability [1]: thermodynamically more stable
chemical and polymorphic stability ([2]; accelerated stability conditions at 25° C./60% RH with desiccant): chemically and polymorphically stable
chemical and polymorphic stability ([2]; long term stability conditions at 5° C.): chemically and polymorphically stable
Substance: Nilotinib fumarate [Form III of Nilotinib fumarate]
